Drawing on patent EP2957607B1, “IMAGE FORMING METHOD” (Konica Minolta, Inc., priority 2014, dated 2015), this text covers pKa for 1 compound.

The nature of the data set: pKa value (acid dissociation constant) of the adsorption inhibitor. The data set is classed as physicochemical. From the text: The pKa value is also called the acid dissociation constant, which can be determined by a conventional method. The pKa value can be determined by, for example, the method described in Jikken Kagaku Koza 5, Netsuteki Sokutei oyobi Heiko (Experimental Chemistry Lecture 5, Thermal Measurements and Equilibrium), page 460, edited by The Chemical Society of Japan, Maruzen Co., Ltd.

The term pKa denotes the negative logarithm of the acid dissociation constant. A low value points to a group that gives up its proton readily.

Some results are limits rather than exact numbers.

In turn, `O=C(O)CC(O)C(=O)O` (stereo not shown) [malic acid, Malic acid] showed a pKa of under 5.5.
